Assay results published in US12611409B2, “Combination therapy using a chemokine receptor 2 (CCR2) antagonist and a PD-1/PD-L1 inhibitor” (CHEMOCENTRYX, INC., priority 2017, dated 2026).

How the values were obtained:
[1] = test system: M-MDSCs and CD8 T cells in the CT26 tumor microenvironment; experiment: Quantitation of tumor-infiltrating cells per gram of CT26 tumor (flow cytometry); format: in vivo, Balb/c mice
Text: CT26 is a Balb/c-derived colon adenocarcinoma that generates tumors when injected subcutaneously into Balb/c mice. Single cells were isolated from established subcutaneous CT26 tumors (28 days after injection) by mincing, digesting the tissue briefly with collagenase-D, and passing the slurry through 100 μm sieves. Cells were stained for flow cytometry and gated on live CD45^+ tumor-infiltrating leukocytes (FIG. 2).
Tumor-infiltrating cytotoxic T cells (Thy1^+/CD8^+) were quantitated by weighing the tumors before dissociation, allowing cells-per-gram of tumor to be calculated.
M-MDSCs were quantitated by weighing the tumors before dissociation, allowing cells-per-gram of tumor to be calculated.
The ratio in control treated mice (veh+iso) was 1:1, meaning one M-MDSC for every CD8 T cell. […] Treatment of Compound 1 alone yielded 10 CD8 T cells for every M-MDSC cell. Treatment with α-PD-1 […].

[2] = Compound 1 plasma levels in the CT26 study; format: in vivo, Balb/c mice; settings: oral gavage 30 mg/kg daily; day 3 and day 23 of dosing
Description: Six days after subcutaneous CT26 implantation into the flanks of 9 wk female Balb/c mice (2.5×10^5/mouse), the recipients were randomized based on tumor size and treatment was begun. Mice received anti-PD-1 (RPM1-14 from BioXcell, Inc., catalog number BE0146) by IP injection on days 7, 10, 17 and 21 (200 μg/mouse), and received CCR2 antagonist Compound 1 (30 or 60 mg/kg) or vehicle by oral gavage every 24 hours starting day 7.

C[C@H]1CN([C@@H]2CC[C@@](C(=O)N3COc4c(cc(C(F)(F)F)cc4C(F)(F)F)C3)(C3CC3)OC2)CC[C@@H]1c1cccc(C(=O)O)c1 [Compound 1]
M-MDSCs in the CT26 tumor microenvironment (cells per gram of tumor) ([1]; by day 24): reduces the population of M-MDSCs
ratio of CD8 T cells to M-MDSCs ([1]; calculated from cell counts of FIG. 10 and FIG. 11, control (veh+iso) 1:1): 10 CD8 T cells for every M-MDSC
trough plasma levels [2]: at or above those required for full receptor coverage
